Laboratory results reported in US20060069132A1, “Azolecarboxamide herbicides” (priority 2004, published 2006).

What was measured:
lambsquarters = test: Test C pre-/postemergence herbicide test; type: in vivo, Chenopodium album; settings: for Plant response rating (0 = no effect, 100 = complete control), Lambsquarters: 62 g ai/ha; for Plant response rating (0 = no effect, 100 = complete control), Lambsquarters / Plant response rating, Lambsquarters: preemergence; for Plant response rating, Lambsquarters: 125 g ai/ha, scale 0 (no effect) to 100 (complete control), visual, 12 to 14 days; for Lambsquarters plant response rating: Preemergence, 500 g ai/ha, scale 0 to 100, 0 no effect, 100 complete control
Summary of the method: (§1)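 Greenhouse-grown plants were evaluated visually 12 to 14 days after treatment, with 100 meaning complete control and 0 no effect. Application was preemergence, or postemergence at 2 to 18 cm.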

cocklebur = test: Test C pre-/postemergence herbicide test; type: in vivo, Xanthium strumarium; settings: for Plant response rating (0 = no effect, 100 = complete control), Cocklebur: 62 g ai/ha; for Plant response rating (0 = no effect, 100 = complete control), Cocklebur / Plant response rating, Cocklebur: preemergence; for Plant response rating, Cocklebur: visual, 12 to 14 days; for Cocklebur plant response rating: Preemergence, 500 g ai/ha, scale 0 to 100, 0 no effect, 100 complete control
Summary of the method: as §1

large crabgrass = test: Test C pre-/postemergence herbicide test; type: in vivo, Digitaria sanguinalis; settings: for Plant response rating (0 = no effect, 100 = complete control), Crabgrass, Large: 62 g ai/ha; for Plant response rating (0 = no effect, 100 = complete control), Crabgrass, Large / Plant response rating, Crabgrass, Large: preemergence; for Plant response rating, Crabgrass, Large: visual, 12 to 14 days; for Crabgrass, Large plant response rating: Preemergence, 500 g ai/ha, scale 0 to 100, 0 no effect, 100 complete control
Summary of the method: as §1

corn = test: Test C pre-/postemergence herbicide test; type: in vivo, Zea mays; settings: for Plant response rating (0 = no effect, 100 = complete control), Corn: 62 g ai/ha; for Plant response rating (0 = no effect, 100 = complete control), Corn / Plant response rating, Corn: preemergence; for Plant response rating, Corn: visual, 12 to 14 days; for Corn plant response rating: Preemergence, 500 g ai/ha, scale 0 to 100, 0 no effect, 100 complete control
Summary of the method: as §1

[1] = tested on: smallflower umbrella sedge; test: Test C flooded paddy test; type: in vivo, Cyperus difformis; settings: for Plant response rating, Sedge, Umbrella: 500 g ai/ha, visual rating after 12 to 14 days
[2] = tested on: common (oilseed) sunflower; test: Test C pre-/postemergence herbicide test; type: in vivo, Helianthus annuus; settings: for Plant response rating (0 = no effect, 100 = complete control), Sunflower: 62 g ai/ha; for Plant response rating (0 = no effect, 100 = complete control), Sunflower / Plant response rating, Sunflower: preemergence; for Plant response rating, Sunflower: 125 g ai/ha, scale 0 (no effect) to 100 (complete control), visual, 12 to 14 days; for Sunflower plant response rating: Preemergence, 500 g ai/ha, scale 0 to 100, 0 no effect, 100 complete control
Summary of the method: as §1

barnyardgrass [3] = test: Test C flooded paddy test; type: in vivo, Echinochloa crus-galli; settings: for Plant response rating, Barnyardgrass: 500 g ai/ha, visual rating after 12 to 14 days
Summary of the method: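 Greenhouse test with a 12–14 day hold after application and visual comparison with controls. Emerged plants were 1- to 4-leaf stage (2–18 cm) when sprayed postemergence, and the paddy barnyardgrass was at 2 leaves under flooded conditions. 100 = complete control.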

velvetleaf = test: Test C pre-/postemergence herbicide test; type: in vivo, Abutilon theophrasti; settings: for Plant response rating, Velvetleaf: 125 g ai/ha, scale 0 (no effect) to 100 (complete control), visual, 12 to 14 days, preemergence; for Velvetleaf plant response rating: Preemergence, 500 g ai/ha, scale 0 to 100, 0 no effect, 100 complete control
Summary of the method: as §1

pigweed = test: Test C pre-/postemergence herbicide test; type: in vivo, Amaranthus retroflexus; settings: for Plant response rating (0 = no effect, 100 = complete control), Pigweed: 62 g ai/ha; for Plant response rating (0 = no effect, 100 = complete control), Pigweed / Plant response rating, Pigweed: preemergence; for Plant response rating, Pigweed: 125 g ai/ha, scale 0 (no effect) to 100 (complete control), visual, 12 to 14 days; for Pigweed plant response rating: Preemergence, 500 g ai/ha, scale 0 to 100, 0 no effect, 100 complete control
Summary of the method: as §1

common ragweed = test: Test C pre-/postemergence herbicide test; type: in vivo, Ambrosia elatior; design: key to Plant response rating, Ragweed: 0 = no effect, 100 = complete control; settings: for Plant response rating (0 = no effect, 100 = complete control), Ragweed: 62 g ai/ha; for Plant response rating (0 = no effect, 100 = complete control), Ragweed / Plant response rating, Ragweed: preemergence; for Plant response rating, Ragweed: 125 g ai/ha, scale 0 (no effect) to 100 (complete control), visual, 12 to 14 days; for Ragweed plant response rating: Preemergence, 500 g ai/ha, scale 0 to 100, 0 no effect, 100 complete control
Summary of the method: as §1

eastern black nightshade = test: Test C pre-/postemergence herbicide test; type: in vivo, Solanum ptycanthum; settings: for Plant response rating (0 = no effect, 100 = complete control), Nightshade: 62 g ai/ha; for Plant response rating (0 = no effect, 100 = complete control), Nightshade / Plant response rating, Nightshade: preemergence; for Plant response rating, Nightshade: 125 g ai/ha, scale 0 (no effect) to 100 (complete control), visual, 12 to 14 days; for Nightshade plant response rating: Preemergence, 500 g ai/ha, scale 0 to 100, 0 no effect, 100 complete control
Summary of the method: as §1

barnyardgrass [4] = test: Test A pre-/postemergence herbicide test; type: in vivo, Echinochloa crus-galli
Summary of the method: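 Plants are held in greenhouse about ten days after treatment, then compared with untreated controls and scored 0 (no effect) to 100 (complete control). Preemergence dosing is a directed soil spray on sown sandy loam; postemergence dosing is spray to runoff at 2–10 cm height.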

ducksalad = test: Test C flooded paddy test; type: in vivo, Heteranthera limosa; settings: for Plant response rating, Ducksalad: 500 g ai/ha, visual rating after 12 to 14 days
[5] = 125 g ai/ha, scale 0 (no effect) to 100 (complete control)
[6] = 250 g ai/ha, scale 0 to 100 (0 no effect, 100 complete control)
[7] = 62 g ai/ha, scale 0 to 100 (0 no effect, 100 complete control)
[8] = 125 g ai/ha, scale of 0 to 100, 0 is no effect, 100 is complete control
[9] = 250 g ai/ha, scale of 0 to 100, 0 is no effect, 100 is complete control
[10] = scale 0 to 100 (0 no effect, 100 complete control)
[11] = Postemergence, 500 g ai/ha, 0 to 100 scale, 0 no effect, 100 complete control
[12] = Postemergence, 2000 g ai/ha, 0 to 100 scale, 0 no effect, 100 complete control
[13] = Preemergence, 500 g ai/ha, visual rating, 0 to 100 scale (0 no effect, 100 complete control)
[14] = Preemergence, 2000 g ai/ha, 0 to 100 scale, 0 no effect, 100 complete control

CCCN1CCc2c(NC(=O)c3cc(C(C)(C)C)nn3CC)cccc2C1=O [Compound 65]
30: Barnyardgrass plant response rating (barnyardgrass [3]; [9])
75: Sedge, Umbrella plant response rating [1, 9] | Plant response rating, Barnyardgrass (barnyardgrass [4]; [12]) | Ducksalad plant response rating (ducksalad; [9])
90: Plant response rating, Nightshade (eastern black nightshade)
60: Plant response rating, Barnyardgrass (barnyardgrass [3]; [10]) | Velvetleaf plant response rating (velvetleaf) | Ragweed plant response rating (common ragweed)
10: Plant response rating, Corn (corn; [6])
95: Plant response rating, Lambsquarters (lambsquarters)
0: Plant response rating (0 = no effect, 100 = complete control), Cocklebur (cocklebur) | Plant response rating, Cocklebur (cocklebur; [5]) | Plant response rating, Cocklebur (cocklebur; [6]) | Cocklebur plant response rating (cocklebur) | Plant response rating (0 = no effect, 100 = complete control), Corn (corn) | Plant response rating, Corn (corn; [5]) | Sedge, Umbrella plant response rating [1, 7] | Plant response rating (0 = no effect, 100 = complete control), Sunflower [2] | Plant response rating, Sunflower [2] | Sunflower plant response rating [2] | Barnyardgrass plant response rating (barnyardgrass [3]; [7]) | Barnyardgrass plant response rating (barnyardgrass [3]; [8]) | Plant response rating, Velvetleaf (velvetleaf) | Plant response rating (0 = no effect, 100 = complete control), Ragweed (common ragweed) | Plant response rating, Ragweed (common ragweed)
45: Plant response rating, Barnyardgrass (barnyardgrass [4]; [11]) | Ducksalad plant response rating (ducksalad; [8])
85: Plant response rating, Ducksalad (ducksalad; [10])
80: Plant response rating, Crabgrass, Large (large crabgrass; [6]) | Plant response rating, Sedge, Umbrella [1, 10]
70: Plant response rating (0 = no effect, 100 = complete control), Pigweed (pigweed) | Barnyardgrass plant response rating (barnyardgrass [4]; [14])
20: Plant response rating (0 = no effect, 100 = complete control), Lambsquarters (lambsquarters) | Corn plant response rating (corn) | Sedge, Umbrella plant response rating [1, 8]
55: Barnyardgrass plant response rating (barnyardgrass [4]; [13])
15: Ducksalad plant response rating (ducksalad; [7])
50: Plant response rating (0 = no effect, 100 = complete control), Crabgrass, Large (large crabgrass) | Plant response rating, Crabgrass, Large (large crabgrass; [5]) | Plant response rating (0 = no effect, 100 = complete control), Nightshade (eastern black nightshade)
100: Lambsquarters plant response rating (lambsquarters) | Crabgrass, Large plant response rating (large crabgrass) | Plant response rating, Pigweed (pigweed) | Pigweed plant response rating (pigweed) | Nightshade plant response rating (eastern black nightshade)

CCOC(=O)c1cccc(NC(=O)c2cc(C(C)(C)C)nn2CC)c1C [Compound 88]
90: Plant response rating (0 = no effect, 100 = complete control), Crabgrass, Large (large crabgrass) | Plant response rating, Nightshade (eastern black nightshade) | Barnyardgrass plant response rating (barnyardgrass [4]; [14])
60: Corn plant response rating (corn)
15: Barnyardgrass plant response rating (barnyardgrass [3]; [9]) | Ducksalad plant response rating (ducksalad; [8])
20: Ragweed plant response rating (common ragweed)
45: Plant response rating, Barnyardgrass (barnyardgrass [3]; [10])
85: Barnyardgrass plant response rating (barnyardgrass [4]; [11])
5: Plant response rating, Corn (corn; [5]) | Plant response rating, Corn (corn; [6])
100: Lambsquarters plant response rating (lambsquarters) | Crabgrass, Large plant response rating (large crabgrass) | Plant response rating (0 = no effect, 100 = complete control), Pigweed (pigweed) | Plant response rating, Pigweed (pigweed) | Pigweed plant response rating (pigweed) | Plant response rating, Barnyardgrass (barnyardgrass [4]; [12])
95: Plant response rating (0 = no effect, 100 = complete control), Lambsquarters (lambsquarters) | Plant response rating, Lambsquarters (lambsquarters) | Plant response rating, Crabgrass, Large (large crabgrass; [5]) | Plant response rating, Crabgrass, Large (large crabgrass; [6]) | Nightshade plant response rating (eastern black nightshade)
0: Plant response rating (0 = no effect, 100 = complete control), Cocklebur (cocklebur) | Plant response rating, Cocklebur (cocklebur; [5]) | Plant response rating, Cocklebur (cocklebur; [6]) | Cocklebur plant response rating (cocklebur) | Plant response rating (0 = no effect, 100 = complete control), Corn (corn) | Sedge, Umbrella plant response rating [1, 7] | Plant response rating (0 = no effect, 100 = complete control), Sunflower [2] | Plant response rating, Sunflower [2] | Sunflower plant response rating [2] | Barnyardgrass plant response rating (barnyardgrass [3]; [7]) | Barnyardgrass plant response rating (barnyardgrass [3]; [8]) | Plant response rating, Velvetleaf (velvetleaf) | Plant response rating (0 = no effect, 100 = complete control), Ragweed (common ragweed) | Plant response rating, Ragweed (common ragweed) | Ducksalad plant response rating (ducksalad; [7])
80: Sedge, Umbrella plant response rating [1, 9] | Plant response rating, Sedge, Umbrella [1, 10]
75: Barnyardgrass plant response rating (barnyardgrass [4]; [13]) | Plant response rating, Ducksalad (ducksalad; [10])
50: Sedge, Umbrella plant response rating [1, 8] | Velvetleaf plant response rating (velvetleaf)
40: Plant response rating (0 = no effect, 100 = complete control), Nightshade (eastern black nightshade) | Ducksalad plant response rating (ducksalad; [9])
